Consider three compounds from patent publication US20250161248A1, “Treating Chronic Myelomonocytic Leukemia with CXCL8 Receptor Inhibitors” (Institut Gustave Roussy, priority 2023, published 2025).

“Also recorded” adds a separate entry of the source.

Series [1] concerns wildtype CD34+ cells (cord blood, healthy donor bone marrow). Briefly: CD34+ liquid culture, cell output/proliferation (healthy donor cells). It counts as cell-based, human. The following applies: for proliferation of wildtype CD34+ cells in liquid culture: inhibitor 10 uM in combination with CXCL8 10 ng/mL, FIG. 12E. Here is the method: (§1) Reagents, CXCR1/2 inhibitors Reparixin and Ladarixin were from MedChemTronica and Clinisciences, respectively, dissolved in dimethylsulfoxide (DMSO). Stem cell factor recombinant (SCF), interleukin-3 recombinant (IL-3), thrombopoietin recombinant (TPO), Fms-like tyrosine kinase 3 recombinant (FLT-3) and Interleukin 8 (IL-8 or CXCL8) were from Peprotech.
(§2) CD34^+ cultures, CD34^+ cells were cultured for 72 h at 1×10^5 cells/ml in complete MEM-alpha medium, SCF (50 ng/mL), IL-3 (10 ng/mL), TPO (10 ng/mL) and FLT-3 (50 ng/mL […]), to which CXCL8 was added in a 37° C. incubator with 5% CO2. Cells were counted after Trypan blue staining. For methylcellulose assays, CD34+ cells were plated in duplicate, at 500 cells with 1 mL complete methylcellulose (MethoCult™ H4034 Optimum, Stem cell) with indicated doses of CXCL8. Colonies were enumerated and phenotyped at day 14.

Series [2] deals with healthy donor CD34+ cells (cord blood, bone marrow). Description: Methylcellulose colony formation assay (healthy donor cells). It counts as cell-based, human. The following applies: for colony forming capacity of wildtype CD34+ cells (total colony output): inhibitor 10 mM (so in the source) in combination with CXCL8 10 ng/mL, FIG. 6F. Here is the method:
as §1, §2

For the next series, the system named is CXCR1 and CXCR2. The following applies: CXCR1 over CXCR2; cited from earlier work.
Series [3] has as its system ischemia-reperfusion injury. Conditions: clinical studies; cited from earlier work.
The test system of series [4] is thyroid cancer tumor cells. The following applies: in vitro; cited from earlier work.
Series [5] has as its system HER-2 negative metastatic breast cancer. The following applies: phase I, in combination with paclitaxel chemotherapy; cited from earlier work.
Series [6] concerns triple negative breast cancer. Conditions: phase II, in combination with paclitaxel; cited from earlier work.
The test system of series [7] is neutrophil-dependent airway inflammation. The following applies: mice; cited from earlier work.
For series [8], the system named is pancreatic ductal adenocarcinoma (PDAC). The following applies: cited from earlier work.
A further series deals with uveal melanoma. Conditions: animal model of uveal melanoma; cited from earlier work.
Series [9] has as its system CMML CD34+ cells. Briefly: CD34+ liquid culture, cell output/proliferation (CMML cells). The following applies: liquid culture with CXCL8. It counts as cell-based, human. The procedure: as §2
For series [10], the system named is CMML CD34+ cells. Briefly: Methylcellulose colony formation assay (CMML cells). Conditions: methylcellulose with CXCL8. The series is classed as cell-based, human. Here is the method:
as §2

As for `CC(C)Cc1ccc([C@@H](C)C(=O)NS(C)(=O)=O)cc1` [reparixin, R-(−)-2-(4-isobutylphenyl)propionyl methansulfonamide], the “proliferation of wildtype CD34+ cells in liquid culture” value in series [1] is recorded as “restored”. In addition, the “healthy donor CD34+ colony formation in presence of IGRAN supernatant” value in series [2] (IGRAN supernatant plus reparixin 10 mM (so in the source), FIG. 6G) is “blocked the inhibitory effects of this supernatant”. For the same compound, in series [2], the “colony forming capacity of wildtype CD34+ cells (total colony output)” value is “restored”. Moreover, in the series with CXCR1 and CXCR2, the “potency to inhibit CXCR1 activity relative to CXCR2” value is 400 fold. The “neutrophil recruitment and inflammatory injury in ischemia-reperfusion” value in [3] is “effectively regulate neutrophil recruitment and attenuate inflammatory injury”. In addition, the “direct anti-tumor activity, tumor cell proliferation” value in [4] was “inhibiting tumor cell proliferation”. In series [5], the tolerability entry was “well tolerated”. Also, the “clinical benefit compared to paclitaxel alone” value in [6] is reported as “no additional clinical benefit”.

As to `C[C@@H](C(=O)NS(C)(=O)=O)c1ccc(OS(=O)(=O)C(F)(F)F)cc1` [ladarixin, 4-[(2 R)-1-oxo-1-(methanesulfonamido)propan-2-yl]phenyl trifluoromethanesulfonate], the “proliferation of wildtype CD34+ cells in liquid culture” value in series [1] is “restored”. In addition, in [2], the “colony forming capacity of wildtype CD34+ cells (total colony output)” value was “restored”. The neutrophil-dependent airway inflammation entry in [7] is listed as “improves neutrophil-dependent airway inflammation”. The “antitumor activity of combination” value in series [8] (mouse PDAC model, ladarixin combined with an anti-PD-1 monoclonal antibody) is “improved antitumor activity compared to either agent alone”. In series [8] (mouse model, ladarixin), the “activity in PDAC model” value is reported as “significant activity”. Also, in the series with uveal melanoma, the TAM polarization entry is listed as “repolarized TAMs to a M1 phenotype” and the tumor cell migration result is listed as “inhibited tumor cell migration”.

Turning to “CXCL8: Interleukin 8 (IL-8 or CXCL8) chemokine from Peprotech, added to CD34+ cultures”, in [1] (liquid culture with indicated doses of CXCL8, FIG. 6A), the “cord blood CD34+ cell proliferation” value was “dose-dependent inhibition”. The “adult healthy donor bone marrow CD34+ cell proliferation” value in series [1] (liquid culture, CXCL8 10 ng/mL, 72 hours, FIG. 12A, 12E) is “decreased”. Moreover, the “colony number / colony forming capacity of healthy cord blood or bone marrow CD34+ cells” value in series [2] (14 days, CXCL8, CFU-GM and CFU-E affected, FIG. 6B, 6F) is reported as “decrease in colony number; also recorded: decreased colony forming capacity”. In the series with CMML CD34+ cells [9], the “CMML CD34+ cell proliferation” value is reported as “failed to inhibit”. In addition, the “CMML CD34+ cell proliferation in colony formation assays” value in the series on CMML CD34+ cells [10] is “not affected”.
